Experimental findings from paper PMC8784098 (Proceedings of the National Academy of Sciences of the …, 2022) are described below.

Data set [1] addresses T1, ASM (Homo sapiens, UniProt P17405).
T1 sequence (P17405 47-631): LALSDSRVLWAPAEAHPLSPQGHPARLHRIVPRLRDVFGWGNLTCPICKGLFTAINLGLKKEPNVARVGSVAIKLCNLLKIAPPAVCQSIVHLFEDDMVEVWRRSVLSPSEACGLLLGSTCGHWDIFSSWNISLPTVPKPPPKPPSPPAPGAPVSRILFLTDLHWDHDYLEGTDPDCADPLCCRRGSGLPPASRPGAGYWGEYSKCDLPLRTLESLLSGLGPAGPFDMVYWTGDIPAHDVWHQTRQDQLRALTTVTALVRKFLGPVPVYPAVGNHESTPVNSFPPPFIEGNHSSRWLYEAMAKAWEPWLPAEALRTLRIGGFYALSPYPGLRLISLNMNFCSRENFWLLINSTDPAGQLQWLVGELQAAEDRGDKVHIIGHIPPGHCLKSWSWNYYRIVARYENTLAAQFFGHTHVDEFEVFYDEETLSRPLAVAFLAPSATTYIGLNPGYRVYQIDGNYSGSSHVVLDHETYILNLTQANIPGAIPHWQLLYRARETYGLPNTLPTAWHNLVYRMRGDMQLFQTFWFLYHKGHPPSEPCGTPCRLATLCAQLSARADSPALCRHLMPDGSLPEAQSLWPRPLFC
Kind of data set: ASM activity in AD patient. The data set is classed as cell-based. The note with it: PS1 fibroblasts, 10 μM, 30 min.

The test system of data set [2] is PS1 fibroblasts. Kind of data set: Ceramide production in PS1 fibroblasts. In kind it is cell-based, human. The settings on record: 10 μM, 30 min.
In data set [3] the target is T2, secretory ASM (Homo sapiens, UniProt P17405).
T2 sequence (P17405 47-631): T1 sequence (P17405 47-631)
Kind of data set: Secretory ASM activity in PS1-derived supernatant medium. The data set is classed as biochemical. The settings on record: P-sup, assay buffer with zinc, 10 μM, 1 h.

For data set [4], the target named is T1, ASM. In words: ASM activity after leupeptin preincubation in PS1 fibroblasts. The settings on record: 25 µM leupeptin 24 h, then compound 30 min. In kind it is cell-based.
The subject of data set [5] is PS1 fibroblasts. Kind of data set: Phospholipid accumulation by LipidTOX. The data set is classed as cell-based, human. The settings on record: 10 μM, 24 h.
In data set [6] the test system is APP/PS1 mice. The data set is classed as in vivo, mouse. The note with it: p.o., KARI 201 1, 5, or 10 mg⋅kg−1, AMI 100 mg⋅kg−1.

`CN(C)CCC=C1c2ccccc2CCc2ccccc21` [AMI, amitriptyline]: in data set [1], the “ASM activity in cell lysates” value is “efficiently inhibited”. Further, the ceramide production entry in data set [2] was “decreased”. In addition, the “secretory ASM activity” value in data set [3] was “did not inhibit ASM activity”. Besides, the “effect of leupeptin preincubation on ASM inhibition” value in data set [4] is “prevented ASM inhibition”. Also, the “accumulation of phospholipids (LipidTOX MFI)” value in data set [5] is on record as “induced accumulation of phospholipids”. In data set [6], the Survival entry is given as “not affected” and the body weight result is “not affected”.
